Experimental findings from patent US20040082551A1, “Novel pyrazoles and their use as p38 kinase inhibitors” (priority 2002, published 2004) are described below.

One may read the IC50 as the concentration needed to halve the response being measured.

In this assay the target is T1, human p38 kinase alpha (Homo sapiens, UniProt Q16539).
T1 construct: The coding region of the human p38α cDNA was obtained by PCR-amplification from RNA isolated from the human monocyte cell line THP.1; made in house; host or cells: E. coli DH10B
Briefly: In vitro p38 kinase inhibition analysis (PHAS-I 32P-ATP or EGFRP 33P-ATP format). It is filed as biochemical. As to conditions: Table 2; additional pyrazole compounds, Examples 56-169; read-out: p38α Kinase Inhibition (IC50 in μM). As to the method: The ability of compounds to inhibit human p38 kinase alpha was evaluated using one of two in vitro assay methods. In the first method, activated human p38 kinase alpha phosphorylates a biotinylated substrate, PHAS-I (phosphorylated heat and acid stable protein-insulin inducible), in the presence of gamma ^32P-ATP (^32P-ATP). PHAS-I was biotinylated before the assay, and provided a means of capturing the substrate which was phosphorylated during the assay. p38 Kinase was activated by MKK6. Compounds were tested in 10 fold serial dilutions over the range of 100 μM to 0.001 μM using 1% DMSO. Each concentration of inhibitor was tested in triplicate.
All reactions were carried out in 96 well polypropylene plates. Each reaction well contained 25 mM HEPES pH 7.5, 10 mM magnesium acetate, and 50 μM unlabeled ATP. […] Activated human p38 kinase alpha was used at 1 μg per 50 μl reaction volume, representing a final concentration of 0.3 μM. Gamma ^32P-ATP was used to follow the phosphorylation of PHAS-I. ^32P-ATP has a specific activity of 3000 Ci/mmol, and was used at 1.2 μCi per 50 μl reaction volume. The reaction proceeded either for one hr or overnight at 30° C.
Following incubation, 20 μl of reaction mixture was transferred to a high capacity streptavidin coated filter plate (SAM-streptavidin-matrix, Promega) prewetted with phosphate buffered saline. The transferred reaction mix was allowed to contact the streptavidin membrane of the Promega plate for 1-2 min. […] Filter plates were air dried and 20 μl of scintillant was added. The plates were sealed and counted.
A second assay format was alternatively employed. This assay is based on p38 kinase alpha being induced phosphorylation of EGFRP (epidermal growth factor receptor peptide, a 21 mer) in the presence of ^33P-ATP. Compounds were tested in 10 fold serial dilutions over the range of 100 μM to 0.001 μM in 10% DMSO. Each concentration of inhibitor was tested in triplicate. Compounds were evaluated in 50 μl reaction volumes in the presence of 25 mM HEPES pH 7.5, 10 mM magnesium acetate, 4% glycerol, 0.4% bovine serum albumin, 0.4 mM DTT, 50 μM unlabeled ATP, 25 μg EGFRP (200 μM), and 0.05 uCi gamma ^33P-ATP. Reactions were initiated by addition of 0.09 μg of activated, purified human GST-p38 kinase alpha. Activation was carried out using GST-MKK6 (5:1,p38:MKK6) for one hr at 30° C. in the presence of 50 μM ATP. Following incubation for 60 min at room temperature, the reaction was stopped by addition of 150 μl of AG 1×8 resin in 900 mM sodium formate buffer, pH 3.0 (1 volume resin to 2 volumes buffer). The mixture was mixed three times with pipetting. Afterward, the resin was allowed to settle. A total of 50 μl of clarified solution head volume was transferred from the reaction wells to Microlite-2 plates. 150 μl of Microscint 40 was then added to each well of the Microlite plate, and the plate was sealed, mixed, and counted.

T1 sequence (Q16539 whole entry): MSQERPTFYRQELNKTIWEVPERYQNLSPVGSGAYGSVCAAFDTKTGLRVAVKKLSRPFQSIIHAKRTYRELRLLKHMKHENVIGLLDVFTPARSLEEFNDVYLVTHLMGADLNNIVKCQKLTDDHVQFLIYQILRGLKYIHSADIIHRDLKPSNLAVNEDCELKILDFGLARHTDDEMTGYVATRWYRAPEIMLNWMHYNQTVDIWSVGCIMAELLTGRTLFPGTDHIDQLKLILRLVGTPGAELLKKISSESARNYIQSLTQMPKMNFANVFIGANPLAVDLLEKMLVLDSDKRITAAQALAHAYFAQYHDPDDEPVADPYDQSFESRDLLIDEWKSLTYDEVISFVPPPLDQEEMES

Regarding `CCN1CCN([C@H]2CC[C@H](c3[nH]nc(-c4ccc(Cl)cc4)c3-c3ccncn3)CC2)CC1` [Example 58], the IC50 was 0.0649 µM. The result for `O=C(CO)N1CCC(c2[nH]nc(-c3ccc(Cl)cc3)c2-c2ccnc(O)n2)CC1` [Example 59] reads 15.8 µM.

Turning to `O=C(CO)N1CCC(c2[nH]nc(-c3ccc(F)c(F)c3)c2-c2ccncn2)CC1` [Example 60], the 50% inhibitory concentration (IC50) stood at 0.753 µM. The result for `COCCOCC(=O)N1CCC(c2[nH]nc(-c3ccc(Cl)cc3)c2-c2ccncn2)CC1` [Example 61] reads 0.764 µM.

As for `O=C([C@H](O)CO)N1CCC(c2[nH]nc(-c3ccc(Cl)cc3)c2-c2ccncn2)CC1` [Example 63], the IC50 was 0.416 µM. `C[C@H](O)[C@@H](O)C(=O)N1CCC(c2[nH]nc(-c3ccc(Cl)cc3)c2-c2ccncn2)CC1` [Example 64]: the IC50 came out at 0.596 µM. The result for `O=C([C@@H](O)CO)N1CCC(c2[nH]nc(-c3ccc(Cl)cc3)c2-c2ccncn2)CC1` [Example 65] reads 0.256 µM; that for `CC(=O)OCC(=O)N1CCC(c2[nH]nc(-c3ccc(Cl)c(Cl)c3)c2-c2ccncn2)CC1` [Example 66], 0.216 µM.

In the case of `O=C(CO)N1CCC(c2[nH]nc(-c3ccc(F)cc3F)c2-c2ccncn2)CC1` [Example 67], the IC50 came to 0.248 µM. Regarding `O=C(CO)N1CCC(c2[nH]nc(-c3ccc(Cl)c(Cl)c3)c2-c2ccncn2)CC1` [Example 69], the IC50 worked out at 0.133 µM. `O=C(CO)N1CCC(c2[nH]nc(-c3ccc(F)c(Cl)c3)c2-c2ccncn2)CC1` [Example 70]: the IC50 worked out at 0.147 µM. As for `Cc1ccc(-c2n[nH]c(C3CCN(C(=O)CO)CC3)c2-c2ccncn2)cc1Cl` [Example 71], the IC50 amounted to 0.444 µM. The same measure for `COc1cc(-c2n[nH]c(C3CCN(C(=O)CO)CC3)c2-c2ccncn2)ccc1Cl` [Example 72]: 4.6 µM; for `COc1ccc(-c2n[nH]c(C3CCN(C(=O)CO)CC3)c2-c2ccncn2)cc1Cl` [Example 73]: 1.2 µM. On to `N#Cc1ccc(-c2n[nH]c(C3CCN(C(=O)CO)CC3)c2-c2ccncn2)cc1` [Example 74], for which the IC50 came out at 7.06 µM. The same measure for `O=C(CO)N1CCC(c2[nH]nc(-c3cc(Cl)cc(Cl)c3)c2-c2ccncn2)CC1` [Example 75]: 3.39 µM.

Take `O=C(CO)N1CCC(c2[nH]nc(-c3cc(F)cc(F)c3)c2-c2ccncn2)CC1` [Example 76]: the IC50 stood at 6.2 µM. The same measure for `COc1cc(Cl)ccc1-c1n[nH]c(C2CCN(C(=O)COC(C)=O)CC2)c1-c1ccncn1` [Example 77]: 22.8 µM. The same measure for `O=C(CO)N1CCC(c2[nH]nc(-c3ccc(Cl)c(C(F)(F)F)c3)c2-c2ccncn2)CC1` [Example 78]: 3.16 µM; for `COc1cc(Cl)ccc1-c1n[nH]c(C2CCN(C(=O)CO)CC2)c1-c1ccncn1` [Example 79]: 19.3 µM; for `O=C(CO)N1CCC(c2[nH]nc(-c3cccc(F)c3F)c2-c2ccncn2)CC1` [Example 80]: 2.45 µM.

Consider `O=C(CO)N1CCC(c2[nH]nc(-c3c(F)cccc3F)c2-c2ccncn2)CC1` [Example 81], for which the IC50 was found to be 4.82 µM. For `CCc1ccc(-c2n[nH]c(C3CCN(C(=O)CO)CC3)c2-c2ccncn2)cc1` [Example 82], the IC50 was found to be 5.85 µM.

With `O=C(CO)N1CCC(c2[nH]nc(-c3cccc(OC(F)(F)F)c3)c2-c2ccncn2)CC1` [Example 83], the half-inhibitory concentration (IC50) is 25.7 µM. Regarding `COc1ccc(-c2n[nH]c(C3CCN(C(=O)CO)CC3)c2-c2ccncn2)cc1` [Example 84], the 50% inhibitory concentration (IC50) is 1.5 µM. Turning to `COc1cccc(-c2n[nH]c(C3CCN(C(=O)CO)CC3)c2-c2ccncn2)c1` [Example 85], the IC50 is 2.1 µM. The result for `O=C(CO)N1CCC(c2[nH]nc(-c3cc(F)ccc3F)c2-c2ccncn2)CC1` [Example 87] reads 1.75 µM. The same measure for `Cc1c(Cl)cccc1-c1n[nH]c(C2CCN(C(=O)CO)CC2)c1-c1ccncn1` [Example 88]: 0.974 µM; for `O=C(CO)N1CCC(c2[nH]nc(-c3ccc(Cl)cc3)c2-c2ccnc(O[C@@H]3CCOC3)n2)CC1` [Example 90]: 0.34 µM. The result for `O=C(CO)N1CCC(c2[nH]nc(-c3ccc(Cl)cc3)c2-c2ccnc(O[C@H]3CCOC3)n2)CC1` [Example 92] reads 0.14 µM. `CSc1nccc(-c2c(-c3ccc(Cl)cc3)n[nH]c2C2CCN(C(=O)COC(C)=O)CC2)n1` [Example 93]: the IC50 was found to be 0.297 µM.

With `N#Cc1ccc(Oc2nccc(-c3c(-c4ccc(Cl)cc4)n[nH]c3C3CCN(C(=O)CO)CC3)n2)cc1` [Example 94], the half-maximal inhibitory concentration (IC50) worked out at 0.108 µM. Take `CC(=O)OCC(=O)N1CCC(c2[nH]nc(-c3ccc(Cl)cc3)c2-c2ccnc(S(C)(=O)=O)n2)CC1` [Example 95]: the IC50 worked out at 3.31 µM. As for `N#Cc1cccc(Oc2nccc(-c3c(-c4ccc(Cl)cc4)n[nH]c3C3CCN(C(=O)CO)CC3)n2)c1` [Example 96], the IC50 was found to be 0.0697 µM. Consider `CN(C)CCOc1nccc(-c2c(-c3ccc(Cl)cc3)n[nH]c2C2CCN(C(=O)CO)CC2)n1` [Example 97], for which the IC50 was 0.377 µM. The result for `O=C(CO)N1CCC(c2[nH]nc(-c3ccc(Cl)cc3O)c2-c2ccncn2)CC1` [Example 98] reads 1.31 µM; that for `CC(C)CCNc1nccc(-c2c(-c3ccc(Cl)cc3)n[nH]c2C2CCN(C(=O)CO)CC2)n1` [Example 100], 0.859 µM. The result for `O=C(CO)N1CCC(c2[nH]nc(-c3cc(F)cc(C(F)(F)F)c3)c2-c2ccncn2)CC1` [Example 101] reads 2.71 µM; that for `O=C(CO)N1CCC(c2[nH]nc(-c3cc(C(F)(F)F)ccc3F)c2-c2ccncn2)CC1` [Example 102], 0.454 µM. `O=C(CO)N1CCC(c2[nH]nc(-c3cccc(C(F)(F)F)c3F)c2-c2ccncn2)CC1` [Example 103]: the IC50 was 5.46 µM. The same measure for `O=C(CO)N1CCC(c2[nH]nc(-c3cc(F)cc(Cl)c3)c2-c2ccncn2)CC1` [Example 104]: 1.1 µM; for `O=C(CO)N1CCC(c2[nH]nc(-c3cc(Cl)ccc3F)c2-c2ccncn2)CC1` [Example 105]: 0.247 µM. The same measure for `O=C(CO)N1CCC(c2[nH]nc(-c3cccc(Cl)c3F)c2-c2ccncn2)CC1` [Example 106]: 0.297 µM; for `C[C@H](O)C(=O)N1CCC(c2[nH]nc(-c3ccc(Cl)cc3F)c2-c2ccncn2)CC1` [Example 107]: 0.0777 µM; for `C[C@H](O)C(=O)N1CCC(c2[nH]nc(-c3cc(F)cc(Cl)c3)c2-c2ccncn2)CC1` [Example 108]: 1.62 µM.

`C[C@H](O)C(=O)N1CCC(c2[nH]nc(-c3cccc(Cl)c3F)c2-c2ccncn2)CC1` [Example 109]: the IC50 came out at 0.379 µM. The same measure for `C[C@H](O)C(=O)N1CCC(c2[nH]nc(-c3cc(Cl)ccc3F)c2-c2ccncn2)CC1` [Example 110]: 0.255 µM; for `C[C@H](O)C(=O)N1CCC(c2[nH]nc(-c3cc(C(F)(F)F)ccc3F)c2-c2ccncn2)CC1` [Example 111]: 0.438 µM. The result for `C[C@H](O)C(=O)N1CCC(c2[nH]nc(-c3cccc(C(F)(F)F)c3F)c2-c2ccncn2)CC1` [Example 112] reads 5.18 µM; that for `C[C@@H](O)C(=O)N1CCC(c2[nH]nc(-c3ccc(Cl)cc3F)c2-c2ccncn2)CC1` [Example 113], 0.207 µM; that for `C[C@@H](O)C(=O)N1CCC(c2[nH]nc(-c3cccc(Cl)c3F)c2-c2ccncn2)CC1` [Example 114], 0.411 µM. As to `C[C@H](O)C(=O)N1CCC(c2[nH]nc(-c3cc(F)cc(C(F)(F)F)c3)c2-c2ccncn2)CC1` [Example 115], the IC50 was 8.48 µM. The result for `CN(C)CCOc1nccc(-c2c(-c3cccc(Cl)c3)n[nH]c2C2CCN(C(=O)CO)CC2)n1` [Example 116] reads 0.727 µM. The result for `CN(C)CCNc1nccc(-c2c(-c3cccc(Cl)c3)n[nH]c2C2CCN(C(=O)CO)CC2)n1` [Example 117] reads 0.699 µM; that for `CN(C)CCNc1nccc(-c2c(-c3ccc(F)c(C(F)(F)F)c3)n[nH]c2C2CCN(C(=O)CO)CC2)n1` [Example 118], 0.814 µM.
